Data reported in PubChem BioAssay (NCI).
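Assay format: 96-well plates, 48-hour exposure. The concentration for 50% growth inhibition is given as GI50. TGI denotes the concentration required for complete inhibition of growth.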

Key:
Test in all cases: DTP human tumour cell line panel, 48 h
NCI-H522 lung = tested on: NCI-H522 lung
U251 CNS = tested on: U251 CNS
COLO 205 colon = tested on: COLO 205 colon
SK-MEL-5 melanoma = tested on: SK-MEL-5 melanoma
UACC-62 melanoma = tested on: UACC-62 melanoma
SNB-19 CNS = tested on: SNB-19 CNS
CAKI-1 renal = tested on: CAKI-1 renal
SK-OV-3 ovarian = tested on: SK-OV-3 ovarian
IGROV1 ovarian = tested on: IGROV1 ovarian
PC-3 prostate = tested on: PC-3 prostate
MDA-MB-231 breast = tested on: MDA-MB-231 breast
A498 renal = tested on: A498 renal
HL-60(TB) leukemia = tested on: HL-60(TB) leukemia
SF-268 CNS = tested on: SF-268 CNS
A549 NSCLC = tested on: A549 NSCLC
MCF7 breast = tested on: MCF7 breast
LOX IMVI melanoma = tested on: LOX IMVI melanoma
RPMI-8226 leukemia = tested on: RPMI-8226 leukemia
SK-MEL-28 melanoma = tested on: SK-MEL-28 melanoma
RXF 393 renal = tested on: RXF 393 renal
K-562 leukemia = tested on: K-562 leukemia
NCI-H23 lung = tested on: NCI-H23 lung
SN12C renal = tested on: SN12C renal
HCC-2998 colon = tested on: HCC-2998 colon
DU-145 prostate = tested on: DU-145 prostate
BT-549 breast = tested on: BT-549 breast
SF-295 CNS = tested on: SF-295 CNS
HOP-62 NSCLC = tested on: HOP-62 NSCLC
UACC-257 melanoma = tested on: UACC-257 melanoma
T-47D breast = tested on: T-47D breast
SNB-75 CNS = tested on: SNB-75 CNS
NCI/ADR-RES ovarian = tested on: NCI/ADR-RES ovarian
SR leukemia = tested on: SR leukemia
TK-10 renal = tested on: TK-10 renal
HCT-116 colon = tested on: HCT-116 colon
MDA-MB-435 = tested on: MDA-MB-435
MALME-3M melanoma = tested on: MALME-3M melanoma
HT29 colon = tested on: HT29 colon
EKVX NSCLC = tested on: EKVX NSCLC
OVCAR-5 ovarian = tested on: OVCAR-5 ovarian
SK-MEL-2 melanoma = tested on: SK-MEL-2 melanoma
M14 melanoma = tested on: M14 melanoma
NCI-H226 lung = tested on: NCI-H226 lung
NCI-H460 lung = tested on: NCI-H460 lung
CCRF-CEM leukemia = tested on: CCRF-CEM leukemia
UO-31 renal = tested on: UO-31 renal
SF-539 CNS = tested on: SF-539 CNS
786-0 renal = tested on: 786-0 renal
OVCAR-8 ovarian = tested on: OVCAR-8 ovarian
KM12 colon = tested on: KM12 colon
HOP-92 NSCLC = tested on: HOP-92 NSCLC
ACHN renal = tested on: ACHN renal
MOLT-4 leukemia = tested on: MOLT-4 leukemia
HCT-15 colon = tested on: HCT-15 colon
OVCAR-4 ovarian = tested on: OVCAR-4 ovarian
OVCAR-3 ovarian = tested on: OVCAR-3 ovarian
HS 578T breast = tested on: HS 578T breast
SW-620 colon = tested on: SW-620 colon

## CS(=O)(=O)Nc1cccc(-c2ccc3ncnc(Nc4ccc(F)c(Cl)c4)c3c2)c1
NCI-H522 lung
  GI50: 1040 nM
  TGI: 3130 nM
U251 CNS
  GI50: 1550 nM
  TGI: 3340 nM
COLO 205 colon
  GI50: 1600 nM
  TGI: 3350 nM
SK-MEL-5 melanoma
  GI50: 1640 nM
  TGI: 3190 nM
UACC-62 melanoma
  GI50: 1840 nM
  TGI: 3830 nM
SNB-19 CNS
  GI50: 1550 nM
  TGI: 4780 nM
CAKI-1 renal
  GI50: 447 nM
  TGI: 19200 nM
SK-OV-3 ovarian
  GI50: 233 nM
  TGI: 1380 nM
IGROV1 ovarian
  GI50: 1090 nM
  TGI: 5410 nM
PC-3 prostate
  GI50: 1940 nM
  TGI: 5890 nM
MDA-MB-231 breast
  GI50: 1400 nM
  TGI: 3450 nM
A498 renal
  GI50: 118 nM
  TGI: 2270 nM
HL-60(TB) leukemia
  GI50: 3530 nM
  TGI: 43300 nM
SF-268 CNS
  GI50: 1970 nM
  TGI: 9140 nM
A549 NSCLC
  GI50: 1580 nM
  TGI: 7490 nM
MCF7 breast
  GI50: 1560 nM
  TGI: 6930 nM
LOX IMVI melanoma
  GI50: 1460 nM
  TGI: 2890 nM
RPMI-8226 leukemia
  GI50: 2070 nM
  TGI: 7590 nM
SK-MEL-28 melanoma
  GI50: 2280 nM
  TGI: 7200 nM
RXF 393 renal
  GI50: 1490 nM
  TGI: 4440 nM
K-562 leukemia
  GI50: 1980 nM
  TGI: 5620 nM
NCI-H23 lung
  GI50: 2150 nM
  TGI: 6570 nM
SN12C renal
  GI50: 1930 nM
  TGI: 6590 nM
HCC-2998 colon
  GI50: 1940 nM
  TGI: 3840 nM
DU-145 prostate
  GI50: 1290 nM
  TGI: 13800 nM
BT-549 breast
  GI50: 1810 nM
  TGI: 4540 nM
SF-295 CNS
  GI50: 1470 nM
  TGI: 3080 nM
HOP-62 NSCLC
  GI50: 1810 nM
  TGI: 4200 nM
UACC-257 melanoma
  GI50: 2050 nM
  TGI: 5070 nM
T-47D breast
  GI50: 731 nM
  TGI: 5170 nM
SNB-75 CNS
  GI50: 4320 nM
  TGI: > 30200 nM
NCI/ADR-RES ovarian
  GI50: 2030 nM
  TGI: 7540 nM
SR leukemia
  GI50: 1430 nM
  TGI: 5320 nM
TK-10 renal
  GI50: 80.1 nM
  TGI: 2260 nM
HCT-116 colon
  GI50: 1590 nM
  TGI: 3290 nM
MDA-MB-435
  GI50: 1910 nM
  TGI: 4750 nM
MALME-3M melanoma
  GI50: 1970 nM
  TGI: 5100 nM
HT29 colon
  GI50: 1640 nM
  TGI: 3730 nM
EKVX NSCLC
  GI50: 129 nM
  TGI: 3720 nM
OVCAR-5 ovarian
  GI50: 1890 nM
  TGI: 6660 nM
SK-MEL-2 melanoma
  GI50: 1980 nM
  TGI: 4150 nM
M14 melanoma
  GI50: 1760 nM
  TGI: 3660 nM
NCI-H226 lung
  GI50: 1800 nM
  TGI: 5330 nM
NCI-H460 lung
  GI50: 2150 nM
  TGI: 5600 nM
CCRF-CEM leukemia
  GI50: 3050 nM
  TGI: > 100000 nM
UO-31 renal
  GI50: 706 nM
  TGI: 3100 nM
SF-539 CNS
  GI50: 1830 nM
  TGI: 4200 nM
786-0 renal
  GI50: 1710 nM
  TGI: 3760 nM
OVCAR-8 ovarian
  GI50: 2230 nM
  TGI: 8530 nM
KM12 colon
  GI50: 2500 nM
  TGI: 8300 nM
HOP-92 NSCLC
  GI50: 1720 nM
  TGI: 5250 nM
ACHN renal
  GI50: 113 nM
  TGI: 6060 nM
MOLT-4 leukemia
  GI50: 1800 nM
  TGI: 12400 nM
HCT-15 colon
  GI50: 1470 nM
  TGI: 3860 nM
OVCAR-4 ovarian
  GI50: 2420 nM
  TGI: > 30600 nM
OVCAR-3 ovarian
  GI50: 1600 nM
  TGI: 6270 nM
HS 578T breast
  GI50: 1850 nM
  TGI: 5550 nM

## O=C(NCC(F)(F)F)Nc1cccc(-c2cnc3cc(-c4ccc(F)cc4)ccn23)c1
NCI-H522 lung
  GI50: 225 nM
  TGI: 962 nM
U251 CNS
  GI50: 622 nM
  TGI: 20800 nM
COLO 205 colon
  GI50: 531 nM
  TGI: > 26700 nM
SK-MEL-5 melanoma
  GI50: 549 nM
  TGI: 14000 nM
UACC-62 melanoma
  GI50: 2440 nM
  TGI: > 56200 nM
SNB-19 CNS
  GI50: 2260 nM
  TGI: > 100000 nM
CAKI-1 renal
  GI50: 1050 nM
SK-OV-3 ovarian
  GI50: 1960 nM
  TGI: > 54200 nM
IGROV1 ovarian
  GI50: 673 nM
  TGI: 7750 nM
PC-3 prostate
  GI50: 2220 nM
  TGI: > 100000 nM
MDA-MB-231 breast
  GI50: 2650 nM
  TGI: > 49400 nM
A498 renal
  GI50: 290 nM
  TGI: 2470 nM
HL-60(TB) leukemia
  GI50: 580 nM
  TGI: 24700 nM
SF-268 CNS
  GI50: 2800 nM
  TGI: > 100000 nM
A549 NSCLC
  GI50: 947 nM
  TGI: > 100000 nM
MCF7 breast
  GI50: 586 nM
  TGI: 18500 nM
LOX IMVI melanoma
  GI50: 727 nM
  TGI: 11200 nM
RPMI-8226 leukemia
  GI50: 1290 nM
  TGI: 17900 nM
SK-MEL-28 melanoma
  GI50: 9160 nM
  TGI: > 83000 nM
RXF 393 renal
  GI50: 1130 nM
  TGI: 6360 nM
K-562 leukemia
  GI50: 376 nM
  TGI: 10900 nM
NCI-H23 lung
  GI50: 1650 nM
  TGI: 20800 nM
SN12C renal
  GI50: 1540 nM
  TGI: > 67400 nM
HCC-2998 colon
  GI50: 1950 nM
  TGI: 49400 nM
DU-145 prostate
  GI50: 3910 nM
  TGI: > 100000 nM
BT-549 breast
  GI50: 1310 nM
  TGI: > 61000 nM
SF-295 CNS
  GI50: 737 nM
  TGI: 6970 nM
HOP-62 NSCLC
  GI50: 1510 nM
  TGI: > 86300 nM
UACC-257 melanoma
  GI50: 14200 nM
  TGI: 65500 nM
T-47D breast
  GI50: 2690 nM
  TGI: 62000 nM
SW-620 colon
  GI50: 515 nM
  TGI: 36800 nM
SNB-75 CNS
  GI50: 240 nM
  TGI: 2090 nM
NCI/ADR-RES ovarian
  GI50: 1820 nM
  TGI: > 68000 nM
SR leukemia
  GI50: 314 nM
  TGI: 11100 nM
TK-10 renal
  GI50: 1020 nM
  TGI: 17700 nM
HCT-116 colon
  GI50: 539 nM
  TGI: 14700 nM
MDA-MB-435
  GI50: 216 nM
  TGI: 983 nM
MALME-3M melanoma
  GI50: 541 nM
  TGI: 46200 nM
HT29 colon
  GI50: 314 nM
  TGI: 1230 nM
EKVX NSCLC
  GI50: 5170 nM
  TGI: > 100000 nM
OVCAR-5 ovarian
  GI50: 8330 nM
  TGI: > 86300 nM
SK-MEL-2 melanoma
  GI50: 477 nM
  TGI: 12000 nM
M14 melanoma
  GI50: 1150 nM
  TGI: > 100000 nM
NCI-H226 lung
  GI50: 3990 nM
  TGI: > 100000 nM
NCI-H460 lung
  GI50: 491 nM
  TGI: > 100000 nM
CCRF-CEM leukemia
  GI50: 1250 nM
  TGI: > 82700 nM
UO-31 renal
  GI50: 575 nM
  TGI: 5530 nM
SF-539 CNS
  GI50: 522 nM
  TGI: 3500 nM
786-0 renal
  GI50: 2260 nM
  TGI: > 100000 nM
OVCAR-8 ovarian
  GI50: 2830 nM
  TGI: 33600 nM
KM12 colon
  GI50: 347 nM
  TGI: 31700 nM
HOP-92 NSCLC
  GI50: 2150 nM
  TGI: > 100000 nM
ACHN renal
  GI50: 2530 nM
  TGI: > 52100 nM
MOLT-4 leukemia
  GI50: 681 nM
  TGI: > 29000 nM
HCT-15 colon
  GI50: 614 nM
  TGI: > 74000 nM
OVCAR-4 ovarian
  GI50: 1660 nM
  TGI: > 100000 nM
OVCAR-3 ovarian
  GI50: 812 nM
  TGI: 15800 nM
HS 578T breast
  GI50: 733 nM
  TGI: > 100000 nM
